According to ChEMBL document CHEMBL1671795, “Evaluation of endogenous fatty acid amides and their synthetic analogues as potential anti-inflammatory leads” (Bioorg Med Chem, 2011):

Experiments:
[1] = test system: HaCaT; test: Antiinflammatory activity against IFN-gamma-stimulated human HaCaT cells assessed as inhibition of chemokine MDC production at 50 to 100 uM after 18 hrs by ELISA; format: functional, cell-based
[2] = test system: HaCaT; test: Cytotoxicity against human HaCaT cells at 50 to 100 uM after 24 hrs by MTT assay; format: cell-based
[3] = test system: RAW264.7; test: Cytotoxicity against mouse RAW264.7 cells at 50 uM after 24 hrs by MTT assay; format: cell-based; conditions: raw264.7, 24 h
[4] = test system: RAW264.7; test: Cytotoxicity against mouse RAW264.7 cells at 100 uM after 24 hrs by MTT assay; format: cell-based; conditions: raw264.7, 24 h
[5] = test system: RAW264.7; test: Antiinflammatory activity against LPS-stimulated mouse RAW264.7 cells assessed as inhibition of NO production at 3.125 to 25 uM after 24 hrs by Griess method; format: functional, cell-based

Structure (SMILES) | Activity [1] | Activity [2] | Activity [3] | Activity [4] | Activity [5]
CCCCCCC/C=C/C(=O)CCCCCCCC(=O)NC(C)C | Non-toxic | Toxic | Toxic | Toxic | –
CCCCCCCC/C=C\CCCCCCCCCCCC(=O)NCC(O)CO (racemic) | Non-toxic | Toxic | – | – | –
CCCCCCCCC(=O)/C=C/CCCCCCC(=O)N[C@H](C)CO | Non-toxic | Toxic | Toxic | Toxic | Dose-dependent effect
CCCCCCCCCCCCCCCC(=O)NC(C)C [HEXADECANOIC ACID ISOPROPYLAMIDE] | Non-toxic | Toxic | – | – | –
CC/C=C\C/C=C\C/C=C\CCCCCCCC(=O)NC(C)C | Non-toxic | Toxic | – | – | –
CCCCCCCC/C=C\CCCCCCCCCCCC(=O)N[C@H](C)CO | Non-toxic | Toxic | – | – | –
CCCCCCCC/C=C\CCCCCCCC(=O)NC(C)C | Non-toxic | Toxic | – | – | –
CCCCC/C=C\C/C=C\CCCCCCCC(=O)NCCO [LINOLEOYLETHANOLAMIDE] | Non-toxic | Toxic | – | – | –
CCCCCCCCC(=O)/C=C/CCCCCCC(=O)NCC(O)CO (racemic) | Non-toxic | Toxic | Toxic | Toxic | Dose-dependent effect
CCCCC/C=C\C/C=C\CCCCCCCC(=O)NCC(O)CO (racemic) | Non-toxic | Toxic | – | – | –
CCCCCCCCCCCCCCCC(=O)NCCCl | Non-toxic | Toxic | – | – | –
CCCCCCCC/C=C/C(=O)CCCCCCC(=O)NC(C)C | Non-toxic | Toxic | Toxic | Toxic | –
CCCCCCCC/C=C/C(=O)CCCCCCC(=O)NCC(O)CO (racemic) | Non-toxic | Toxic | Toxic | Toxic | –
CCCCCCC/C=C/C(=O)CCCCCCCC(=O)NCCCl | Non-toxic | Toxic | Toxic | Toxic | –
CCCCCCCCC(=O)/C=C/CCCCCCC(=O)NCCO | Non-toxic | Toxic | Toxic | Toxic | Dose-dependent effect
CCCCCCCC/C=C\CCCCCCCCCCCC(=O)NC(C)C | Non-toxic | Toxic | – | – | –
CCCCCCCCC(=O)/C=C/CCCCCCC(=O)NCCCl | Non-toxic | Toxic | Toxic | Toxic | Dose-dependent effect
CCCCCCCC(=O)/C=C/CCCCCCCC(=O)NCC(O)CO (racemic) | Non-toxic | Toxic | Toxic | Toxic | –
CCCCCCCCCCCCCCCC(=O)N[C@H](C)CO | Non-toxic | Toxic | – | – | –
CCCCCCC/C=C/C(=O)CCCCCCCC(=O)NCCc1ccc(O)c(O)c1 | Non-toxic | Toxic | Toxic | Toxic | –

Structure (SMILES) | Activity [1] | Activity [2] | Activity [3] | Activity [4] | Activity [5]
CCCCCCCC(=O)/C=C/CCCCCCCC(=O)NCCc1c[nH]c2ccc(O)cc12 | Non-toxic | Toxic | Toxic | Toxic | –
CCCCCCCC(=O)/C=C/CCCCCCCC(=O)NCCc1ccc(O)c(O)c1 | Non-toxic | Toxic | Toxic | Toxic | –
CCCCCCCC/C=C/C(=O)CCCCCCC(=O)NCC(=O)O | Non-toxic | Toxic | Toxic | Toxic | Dose-dependent effect
CCCCCCC/C=C/C(=O)CCCCCCCC(=O)NCC(O)CO (racemic) | Non-toxic | Toxic | Toxic | Toxic | –
CC/C=C\C/C=C\C/C=C\CCCCCCCC(=O)N[C@H](C)CO | Non-toxic | Toxic | – | – | –
CC/C=C\C/C=C\C/C=C\CCCCCCCC(=O)NCCc1c[nH]c2ccc(O)cc12 | Non-toxic | Toxic | – | – | –
CCCCCCCC/C=C/C(=O)CCCCCCC(=O)NCCc1ccc(O)c(O)c1 | Non-toxic | Toxic | Toxic | Toxic | –
CCCCC/C=C\C/C=C\CCCCCCCC(=O)NCC(=O)O [LINOLEOYL GLYCINE] | Non-toxic | Toxic | – | – | –
CC/C=C\C/C=C\C/C=C\CCCCCCCC(=O)NCC(=O)O | Non-toxic | Toxic | – | – | –
CCCCCCC/C=C/C(=O)CCCCCCCC(=O)NCCc1c[nH]c2ccc(O)cc12 | Non-toxic | Toxic | Toxic | Toxic | –
CCCCCCCCC(=O)/C=C/CCCCCCC(=O)NC(C)C | Non-toxic | Toxic | Toxic | Toxic | Dose-dependent effect
CCCCCCCC/C=C\CCCCCCCC(=O)NCC(=O)O [OLEOYL GLYCINE] | Non-toxic | Toxic | – | – | –
CC/C=C\C/C=C\C/C=C\CCCCCCCC(=O)NCCCl | Non-toxic | Toxic | – | – | –
CCCCCCCC/C=C/C(=O)CCCCCCC(=O)N[C@H](C)CO | Non-toxic | Toxic | Toxic | Toxic | –
CC/C=C\C/C=C\C/C=C\CCCCCCCC(=O)NCCO | Non-toxic | Toxic | – | – | –
CCCCCCCC(=O)/C=C/CCCCCCCC(=O)NCCO | Non-toxic | Toxic | Toxic | Toxic | –
CCCCCCC/C=C/C(=O)CCCCCCCC(=O)NCCO | Non-toxic | Toxic | Toxic | Toxic | –
CCCCCCCC(=O)/C=C/CCCCCCCC(=O)N[C@H](C)CO | Non-toxic | Toxic | Toxic | Toxic | –
CC/C=C\C/C=C\C/C=C\CCCCCCCC(=O)O [LINOLENIC ACID] | Non-toxic | Toxic | – | – | –
CCCCC/C=C\C/C=C\CCCCCCCC(=O)NC(C)C | Non-toxic | Toxic | – | – | –

Structure (SMILES) | Activity [1] | Activity [2] | Activity [3] | Activity [4] | Activity [5]
CCCCC/C=C\C/C=C\CCCCCCCC(=O)N[C@H](C)CO | Non-toxic | Toxic | – | – | –
CC/C=C\C/C=C\C/C=C\CCCCCCCC(=O)NCC(O)CO (racemic) | Non-toxic | Toxic | – | – | –
CCCCCCC/C=C/C(=O)CCCCCCCC(=O)N[C@H](C)CO | Non-toxic | Toxic | Toxic | Toxic | –
CCCCCCC/C=C/C(=O)CCCCCCCC(=O)NCC(=O)O | Non-toxic | Toxic | Toxic | Toxic | Dose-dependent effect
CCCCCCCC/C=C/C(=O)CCCCCCC(=O)NCCO | Non-toxic | Toxic | Toxic | Toxic | –
CCCCCCCCC(=O)/C=C/CCCCCCC(=O)NCCc1c[nH]c2ccc(O)cc12 | Non-toxic | Toxic | Toxic | Toxic | Dose-dependent effect
CCCCCCCC/C=C/C(=O)CCCCCCC(=O)NCCCl | Non-toxic | Toxic | Toxic | Toxic | –
CCCCCCCC/C=C\CCCCCCCC(=O)N[C@H](C)CO | Non-toxic | Toxic | – | – | –
CCCCCCCCCCCCCCCC(=O)NCC(=O)O [PALMITOYL GLYCINE] | Non-toxic | Toxic | – | – | –
CCCCCCCC/C=C\CCCCCCCC(=O)NCCO [OLEOYLETHANOLAMIDE] | Non-toxic | Toxic | – | – | –
CCCCC/C=C\C/C=C\CCCCCCCC(=O)NCCCl | Non-toxic | Toxic | – | – | –
CCCCCCCCCCCCCCCC(=O)NCC(O)CO (racemic) | Non-toxic | Toxic | – | – | –
CCCCCCCC(=O)/C=C/CCCCCCCC(=O)NCCCl | Non-toxic | Toxic | Toxic | Toxic | –
CCCCCCCC/C=C\CCCCCCCC(=O)NCC(O)CO (racemic) | Non-toxic | Toxic | – | – | –
CCCCCCCC/C=C/C(=O)CCCCCCC(=O)NCCc1c[nH]c2ccc(O)cc12 | Non-toxic | Toxic | Toxic | Toxic | –
CCCCCCCCCCCCCCCC(=O)NCCO [PALMIDROL] | Non-toxic | Toxic | – | – | –
CCCCCCCC/C=C\CCCCCCCC(=O)NCCCl | Non-toxic | Toxic | – | – | –
CCCCCCCC(=O)/C=C/CCCCCCCC(=O)NC(C)C | Non-toxic | Toxic | Toxic | Toxic | –
CCCCCCCC/C=C\CCCCCCCCCCCC(=O)NCCCl | Non-toxic | Toxic | – | – | –
CCCCCCCC/C=C\CCCCCCCCCCCC(=O)NCCO | Non-toxic | Toxic | – | – | –
